Measured values as given in the supplement of paper PMC10307832.

Experiments:
Test in all cases: relative viability (nuclei count vs DMSO), 5 days (fraction); higher = more cells survive
NCI-H23 = system: NCI-H23
In short: (§1)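 Lung cancer cell lines were pin-tool dosed in 1536-well plates on the day after seeding, with either a lone drug or a fixed anchor-drug dose plus five library-drug doses (not always all listed) in √10 steps. Nuclei were counted on 4× images after 5 days. Relative viability is the ratio of treated-well to vehicle-well nuclei counts, with each value a median of duplicate plates.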

NCI-H596 = system: NCI-H596
In short: as §1

LK-2 = system: LK-2
In short: as §1

EKVX = system: EKVX
In short: as §1

NCI-H2170 = system: NCI-H2170
In short: as §1

SW 900 = system: SW 900
In short: as §1

NCI-H520 = system: NCI-H520
In short: as §1

NCI-H1792 = system: NCI-H1792
In short: as §1

ChaGo-K-1 = system: ChaGo-K-1
In short: as §1

COR-L 105 = system: COR-L 105
In short: as §1

HCC-366 = system: HCC-366
In short: as §1

LOU-NH91 = system: LOU-NH91
In short: as §1

NCI-H1975 = system: NCI-H1975
In short: as §1

A-427 = system: A-427
In short: as §1

EMC-BAC-2 = system: EMC-BAC-2
In short: as §1

NCI-H1734 = system: NCI-H1734
In short: as §1

NCI-H441 = system: NCI-H441
In short: as §1

NCI-H1755 = system: NCI-H1755
In short: as §1

NCI-H1666 = system: NCI-H1666
In short: as §1

PC-3 [JPC-3] = system: PC-3 [JPC-3]
In short: as §1

NCI-H1563 = system: NCI-H1563
In short: as §1

SK-MES-1 = system: SK-MES-1
In short: as §1

H3255 = system: H3255
In short: as §1

## O=C(O)c1ccc(-c2c[nH]c3ncc(-c4ccccc4)cc23)cc1C1CCCC1 + COc1cccc2cc(-c3nc([C@H]4CC[C@H](C(=O)O)CC4)n4ncnc(N)c34)[nH]c12 [OSI-027] (partner 0.5 µM)
NCI-H23; first compound 0.04 µM
  relative viability: 0.599
NCI-H23; first compound 0.1265 µM
  relative viability: 0.71
NCI-H23; first compound 0.4 µM
  relative viability: 0.576
NCI-H23; first compound 1.265 µM
  relative viability: 0.531
NCI-H596; first compound 0.04 µM
  relative viability: 0.728
NCI-H596; first compound 0.1265 µM
  relative viability: 0.733
NCI-H596; first compound 0.4 µM
  relative viability: 0.833
NCI-H596; first compound 1.265 µM
  relative viability: 0.654
LK-2; first compound 0.04 µM
  relative viability: 0.202
LK-2; first compound 0.1265 µM
  relative viability: 0.23
LK-2; first compound 0.4 µM
  relative viability: 0.165
LK-2; first compound 1.265 µM
  relative viability: 0.195
EKVX; first compound 0.04 µM
  relative viability: 0.736
EKVX; first compound 0.1265 µM
  relative viability: 0.828
EKVX; first compound 0.4 µM
  relative viability: 0.727
EKVX; first compound 1.265 µM
  relative viability: 0.587
NCI-H2170; first compound 0.04 µM
  relative viability: 0.734
NCI-H2170; first compound 0.1265 µM
  relative viability: 0.685
NCI-H2170; first compound 0.4 µM
  relative viability: 0.703
NCI-H2170; first compound 1.265 µM
  relative viability: 0.676
SW 900; first compound 0.04 µM
  relative viability: 0.696
SW 900; first compound 0.1265 µM
  relative viability: 0.493
SW 900; first compound 0.4 µM
  relative viability: 0.631
SW 900; first compound 1.265 µM
  relative viability: 0.595
NCI-H520; first compound 0.04 µM
  relative viability: 0.23
NCI-H520; first compound 0.1265 µM
  relative viability: 0.269
NCI-H520; first compound 0.4 µM
  relative viability: 0.336
NCI-H520; first compound 1.265 µM
  relative viability: 0.242
NCI-H1792; first compound 0.1265 µM
  relative viability: 0.908
NCI-H1792; first compound 0.4 µM
  relative viability: 0.698
NCI-H1792; first compound 1.265 µM
  relative viability: 0.696
ChaGo-K-1; first compound 0.04 µM
  relative viability: 0.651
ChaGo-K-1; first compound 0.1265 µM
  relative viability: 0.595
ChaGo-K-1; first compound 0.4 µM
  relative viability: 0.532
ChaGo-K-1; first compound 1.265 µM
  relative viability: 0.51
COR-L 105; first compound 0.04 µM
  relative viability: 0.635
COR-L 105; first compound 0.1265 µM
  relative viability: 0.673
COR-L 105; first compound 0.4 µM
  relative viability: 0.757
COR-L 105; first compound 1.265 µM
  relative viability: 0.838
HCC-366; first compound 0.04 µM
  relative viability: 1.17
HCC-366; first compound 0.1265 µM
  relative viability: 0.849
HCC-366; first compound 0.4 µM
  relative viability: 0.966
HCC-366; first compound 1.265 µM
  relative viability: 0.994
LOU-NH91; first compound 0.04 µM
  relative viability: 0.743
LOU-NH91; first compound 0.1265 µM
  relative viability: 0.824
LOU-NH91; first compound 0.4 µM
  relative viability: 0.733
LOU-NH91; first compound 1.265 µM
  relative viability: 0.73
NCI-H1975; first compound 0.04 µM
  relative viability: 0.7
NCI-H1975; first compound 0.1265 µM
  relative viability: 0.871
NCI-H1975; first compound 0.4 µM
  relative viability: 0.648
NCI-H1975; first compound 1.265 µM
  relative viability: 0.629
A-427; first compound 0.04 µM
  relative viability: 0.48
A-427; first compound 0.1265 µM
  relative viability: 0.54
A-427; first compound 0.4 µM
  relative viability: 0.418
A-427; first compound 1.265 µM
  relative viability: 0.493
EMC-BAC-2; first compound 0.04 µM
  relative viability: 0.401
EMC-BAC-2; first compound 0.1265 µM
  relative viability: 0.388
EMC-BAC-2; first compound 0.4 µM
  relative viability: 0.39
EMC-BAC-2; first compound 1.265 µM
  relative viability: 0.365
NCI-H1734; first compound 0.04 µM
  relative viability: 0.621
NCI-H1734; first compound 0.1265 µM
  relative viability: 0.701
NCI-H1734; first compound 0.4 µM
  relative viability: 0.549
NCI-H1734; first compound 1.265 µM
  relative viability: 0.512
NCI-H441; first compound 0.04 µM
  relative viability: 0.675
NCI-H441; first compound 0.1265 µM
  relative viability: 0.567
NCI-H441; first compound 0.4 µM
  relative viability: 0.571
NCI-H441; first compound 1.265 µM
  relative viability: 0.466
NCI-H1755; first compound 0.04 µM
  relative viability: 0.748
NCI-H1755; first compound 0.1265 µM
  relative viability: 0.814
NCI-H1755; first compound 0.4 µM
  relative viability: 0.724
NCI-H1755; first compound 1.265 µM
  relative viability: 0.673
NCI-H1666; first compound 0.04 µM
  relative viability: 0.846
NCI-H1666; first compound 0.1265 µM
  relative viability: 0.884
NCI-H1666; first compound 0.4 µM
  relative viability: 0.906
NCI-H1666; first compound 1.265 µM
  relative viability: 0.624
PC-3 [JPC-3]; first compound 0.04 µM
  relative viability: 0.784
PC-3 [JPC-3]; first compound 0.1265 µM
  relative viability: 0.792
PC-3 [JPC-3]; first compound 0.4 µM
  relative viability: 0.82
PC-3 [JPC-3]; first compound 1.265 µM
  relative viability: 0.655
NCI-H1563; first compound 0.04 µM
  relative viability: 0.72
NCI-H1563; first compound 0.1265 µM
  relative viability: 0.753
NCI-H1563; first compound 0.4 µM
  relative viability: 0.783
NCI-H1563; first compound 1.265 µM
  relative viability: 0.798
SK-MES-1; first compound 0.04 µM
  relative viability: 0.647
SK-MES-1; first compound 0.1265 µM
  relative viability: 0.648
SK-MES-1; first compound 0.4 µM
  relative viability: 0.622
SK-MES-1; first compound 1.265 µM
  relative viability: 0.41
H3255; first compound 0.04 µM
  relative viability: 0.671
H3255; first compound 0.1265 µM
  relative viability: 0.662
H3255; first compound 0.4 µM
  relative viability: 0.554
H3255; first compound 1.265 µM
  relative viability: 0.506
